From ChEMBL document CHEMBL4024706 (Eur J Med Chem, 2017)

Tests used:
[1] = target: SRSF protein kinase 3 (Homo sapiens) (UniProt Q9UPE1); assay: Inhibition of wild-type human partial length SRPK3 (P41 to P567 residues) expressed in bacterial expression system assessed as residual activity at 1 uM by Kinomescan method relative to control
[2] = test system: Phosphatidylinositol 4,5-bisphosphate 3-kinase catalytic subunit alpha isoform (Homo sapiens), P42336 [M1043I]; assay: Inhibition of human partial length PIK3CA M1043I mutant (R108 to N1068 residues) expressed in mammalian expression system assessed as residual activity at 1 uM by Kinomescan method relative to control
[3] = target: Tyrosine-protein kinase ZAP-70 (Homo sapiens) (UniProt P43403); assay: Inhibition of wild-type human partial length ZAP70 (D20 to G299 residues) expressed in mammalian expression system assessed as residual activity at 1 uM by Kinomescan method relative to control
[4] = target: Casein kinase I isoform epsilon (Homo sapiens) (UniProt P49674); assay: Inhibition of wild-type human full length CSNK1E (M1 to K416 residues) expressed in bacterial expression system assessed as residual activity at 1 uM by Kinomescan method relative to control
[5] = target: Serine/threonine-protein kinase MRCK beta (Homo sapiens) (UniProt Q9Y5S2); assay: Inhibition of wild-type human partial length MRCKB (L56 to S417 residues) expressed in bacterial expression system assessed as residual activity at 1 uM by Kinomescan method relative to control
[6] = target: RAC-gamma serine/threonine-protein kinase (Homo sapiens) (UniProt Q9Y243); assay: Inhibition of wild-type human partial length AKT3 expressed in bacterial expression system assessed as residual activity at 1 uM by Kinomescan method relative to control
[7] = target: NUAK family SNF1-like kinase 1 (Homo sapiens) (UniProt O60285); assay: Inhibition of wild-type human partial length ARK5 (E25 to I332 residues) expressed in bacterial expression system assessed as residual activity at 1 uM by Kinomescan method relative to control
[8] = target: Inhibitor of nuclear factor kappa-B kinase subunit beta (Homo sapiens) (UniProt O14920); assay: Inhibition of wild-type human full length IKK-beta (M1 to S756 residues) expressed in mammalian expression system assessed as residual activity at 1 uM by Kinomescan method relative to control
[9] = target: Ribosomal protein S6 kinase alpha-5 (Homo sapiens) (UniProt O75582); assay: Inhibition of wild-type human partial length C-terminal RPS6KA5 kinase domain 2 (V390 to T718 residues) expressed in bacterial expression system assessed as residual activity at 1 uM by Kinomescan method relative to control
[10] = target: Serine/threonine-protein kinase 38 (Homo sapiens) (UniProt Q15208); assay: Inhibition of wild-type human partial length NDR1 (N33 to E449 residues) expressed in mammalian expression system assessed as residual activity at 1 uM by Kinomescan method relative to control
[11] = target: Membrane-associated tyrosine- and threonine-specific cdc2-inhibitory kinase (Homo sapiens) (UniProt Q99640); assay: Inhibition of wild-type human partial length PKMYT1 (A88 to G366 residues) expressed in bacterial expression system assessed as residual activity at 1 uM by Kinomescan method relative to control
[12] = test system: Epidermal growth factor receptor (Homo sapiens), P00533 [G719S]; assay: Inhibition of human partial length EGFR G719S mutant (R669 to V1011 residues) expressed in bacterial expression system assessed as residual activity at 1 uM by Kinomescan method relative to control
[13] = test system: Epidermal growth factor receptor (Homo sapiens), P00533 [UNDEFINED MUTATION]; assay: Inhibition of human partial length EGFR S752-I759del mutant expressed in bacterial expression system assessed as residual activity at 1 uM by Kinomescan method relative to control
[14] = target: Aurora kinase B (Homo sapiens) (UniProt Q96GD4); assay: Inhibition of wild-type human partial length AURKB (D25 to A303 residues) expressed in mammalian expression system assessed as residual activity at 1 uM by Kinomescan method relative to control
[15] = target: Serine/threonine-protein kinase TBK1 (Homo sapiens) (UniProt Q9UHD2); assay: Inhibition of wild-type human full length TBK1 (M1 to L729 residues) expressed in mammalian expression system assessed as residual activity at 1 uM by Kinomescan method relative to control
[16] = target: BMP-2-inducible protein kinase (Homo sapiens) (UniProt Q9NSY1); assay: Inhibition of wild-type human partial length BIKE (S34 to N329 residues) expressed in bacterial expression system assessed as residual activity at 1 uM by Kinomescan method relative to control
U-937 = assay: Growth inhibition of human U937 cells; assay type: functional; conditions: Homo sapiens, U-937
[17] = target: Serine/threonine-protein kinase 32B (Homo sapiens) (UniProt Q9NY57); assay: Inhibition of wild-type human full length YANK2 (M1 to S414 residues) expressed in bacterial expression system assessed as residual activity at 1 uM by Kinomescan method relative to control
[18] = target: High affinity nerve growth factor receptor (Homo sapiens) (UniProt P04629); assay: Inhibition of wild-type human partial length TRKA (G475 to G790 residues) expressed in mammalian expression system assessed as residual activity at 1 uM by Kinomescan method relative to control
Homo sapiens = species on record: Homo sapiens; assay: Inhibition of human partial length FLT3 ITD/F691L double mutant expressed in bacterial expression system assessed as residual activity at 1 uM by Kinomescan method relative to control
[19] = target: Serine/threonine-protein kinase mTOR (Homo sapiens) (UniProt P42345); assay: Inhibition of wild-type human partial length MTOR (L1382 to W2549 residues) expressed in mammalian expression system assessed as residual activity at 1 uM by Kinomescan method relative to control
[20] = target: Mitogen-activated protein kinase kinase kinase 10 (Homo sapiens) (UniProt Q02779); assay: Inhibition of wild-type human partial length MLK2 (V52 to W380 residues) expressed in bacterial expression system assessed as residual activity at 1 uM by Kinomescan method relative to control
[21] = target: Maternal embryonic leucine zipper kinase (Homo sapiens) (UniProt Q14680); assay: Inhibition of wild-type human full length MELK (M1 to V651 residues) expressed in bacterial expression system assessed as residual activity at 1 uM by Kinomescan method relative to control
[22] = target: Activin receptor type-1-like (Homo sapiens) (UniProt P37023); assay: Inhibition of wild-type human ACVRL1 (L164 to Q503 residues) expressed in bacterial expression system assessed as residual activity at 1 uM by Kinomescan method relative to control
[23] = target: Tyrosine-protein kinase FRK (Homo sapiens) (UniProt P42685); assay: Inhibition of wild-type human partial length FRK (A215 to F503 residues) expressed in bacterial expression system assessed as residual activity at 1 uM by Kinomescan method relative to control
[24] = test system: Mast/stem cell growth factor receptor Kit (Homo sapiens), P10721 [UNDEFINED MUTATION]; assay: Inhibition of human partial length KIT V559D/V654 double mutant (Y545 to D952 residues) expressed in bacterial expression system assessed as residual activity at 1 uM by Kinomescan method relative to control

Serine/threonine-protein kinase MRCK beta (Homo sapiens), sequence (Q9Y5S2 whole entry, the tested form may be a part): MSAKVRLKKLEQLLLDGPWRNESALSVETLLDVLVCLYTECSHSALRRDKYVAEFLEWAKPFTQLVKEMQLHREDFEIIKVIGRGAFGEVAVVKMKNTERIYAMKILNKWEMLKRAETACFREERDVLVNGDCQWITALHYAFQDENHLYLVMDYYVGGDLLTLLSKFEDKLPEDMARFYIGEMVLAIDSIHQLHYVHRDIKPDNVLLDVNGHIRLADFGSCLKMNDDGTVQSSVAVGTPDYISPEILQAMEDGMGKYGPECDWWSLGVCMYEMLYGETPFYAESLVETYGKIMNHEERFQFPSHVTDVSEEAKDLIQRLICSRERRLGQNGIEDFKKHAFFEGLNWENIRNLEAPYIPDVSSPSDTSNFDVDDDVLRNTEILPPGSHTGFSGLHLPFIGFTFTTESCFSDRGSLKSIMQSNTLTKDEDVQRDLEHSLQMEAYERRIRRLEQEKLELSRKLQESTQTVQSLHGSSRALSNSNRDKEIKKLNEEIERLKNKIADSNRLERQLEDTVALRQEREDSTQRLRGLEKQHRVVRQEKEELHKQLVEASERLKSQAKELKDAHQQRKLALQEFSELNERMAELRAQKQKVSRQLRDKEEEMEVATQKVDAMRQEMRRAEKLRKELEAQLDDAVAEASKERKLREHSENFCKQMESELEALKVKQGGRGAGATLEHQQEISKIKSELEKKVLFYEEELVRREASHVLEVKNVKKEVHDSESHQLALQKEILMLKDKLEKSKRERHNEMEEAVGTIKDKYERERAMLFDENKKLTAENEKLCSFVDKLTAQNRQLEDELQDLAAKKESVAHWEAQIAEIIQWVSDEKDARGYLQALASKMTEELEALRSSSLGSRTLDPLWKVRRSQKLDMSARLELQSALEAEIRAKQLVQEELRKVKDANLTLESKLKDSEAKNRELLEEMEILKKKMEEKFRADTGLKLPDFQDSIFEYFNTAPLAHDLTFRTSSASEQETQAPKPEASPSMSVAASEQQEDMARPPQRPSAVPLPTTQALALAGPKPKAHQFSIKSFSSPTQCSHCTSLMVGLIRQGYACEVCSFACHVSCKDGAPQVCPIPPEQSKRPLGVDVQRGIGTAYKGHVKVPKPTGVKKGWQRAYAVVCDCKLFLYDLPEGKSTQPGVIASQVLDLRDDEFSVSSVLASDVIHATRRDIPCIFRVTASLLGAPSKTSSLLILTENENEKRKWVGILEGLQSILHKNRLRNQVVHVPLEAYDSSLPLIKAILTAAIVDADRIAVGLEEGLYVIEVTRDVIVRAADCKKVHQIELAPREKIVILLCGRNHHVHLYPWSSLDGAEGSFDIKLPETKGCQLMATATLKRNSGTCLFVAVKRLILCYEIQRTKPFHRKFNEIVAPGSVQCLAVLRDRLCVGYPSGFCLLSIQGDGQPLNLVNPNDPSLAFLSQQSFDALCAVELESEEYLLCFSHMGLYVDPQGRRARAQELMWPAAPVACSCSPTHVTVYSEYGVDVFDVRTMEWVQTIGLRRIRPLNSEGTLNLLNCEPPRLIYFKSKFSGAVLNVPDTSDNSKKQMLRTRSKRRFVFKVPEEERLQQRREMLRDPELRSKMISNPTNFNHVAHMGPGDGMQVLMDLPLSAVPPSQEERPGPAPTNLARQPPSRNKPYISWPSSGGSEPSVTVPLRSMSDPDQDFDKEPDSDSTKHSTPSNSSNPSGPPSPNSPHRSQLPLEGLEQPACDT
NUAK family SNF1-like kinase 1 (Homo sapiens), sequence (O60285 whole entry, the tested form may be a part): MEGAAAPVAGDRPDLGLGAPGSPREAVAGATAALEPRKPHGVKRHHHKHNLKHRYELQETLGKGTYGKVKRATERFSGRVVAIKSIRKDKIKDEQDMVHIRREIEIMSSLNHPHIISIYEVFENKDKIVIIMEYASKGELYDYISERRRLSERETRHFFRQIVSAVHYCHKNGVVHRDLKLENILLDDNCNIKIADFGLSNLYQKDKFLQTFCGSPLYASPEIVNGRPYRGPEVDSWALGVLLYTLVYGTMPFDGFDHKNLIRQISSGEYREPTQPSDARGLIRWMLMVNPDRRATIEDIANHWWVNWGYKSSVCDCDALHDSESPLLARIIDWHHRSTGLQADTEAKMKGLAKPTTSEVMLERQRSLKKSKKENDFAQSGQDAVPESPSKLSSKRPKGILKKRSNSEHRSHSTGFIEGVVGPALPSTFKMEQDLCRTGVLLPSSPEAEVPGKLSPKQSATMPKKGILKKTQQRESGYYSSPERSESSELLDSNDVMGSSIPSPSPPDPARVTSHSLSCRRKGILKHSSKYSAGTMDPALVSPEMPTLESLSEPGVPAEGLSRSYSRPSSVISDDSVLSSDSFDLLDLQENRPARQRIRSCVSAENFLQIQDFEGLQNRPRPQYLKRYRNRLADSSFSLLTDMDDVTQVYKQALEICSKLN
Inhibitor of nuclear factor kappa-B kinase subunit beta (Homo sapiens), sequence (O14920 whole entry, the tested form may be a part): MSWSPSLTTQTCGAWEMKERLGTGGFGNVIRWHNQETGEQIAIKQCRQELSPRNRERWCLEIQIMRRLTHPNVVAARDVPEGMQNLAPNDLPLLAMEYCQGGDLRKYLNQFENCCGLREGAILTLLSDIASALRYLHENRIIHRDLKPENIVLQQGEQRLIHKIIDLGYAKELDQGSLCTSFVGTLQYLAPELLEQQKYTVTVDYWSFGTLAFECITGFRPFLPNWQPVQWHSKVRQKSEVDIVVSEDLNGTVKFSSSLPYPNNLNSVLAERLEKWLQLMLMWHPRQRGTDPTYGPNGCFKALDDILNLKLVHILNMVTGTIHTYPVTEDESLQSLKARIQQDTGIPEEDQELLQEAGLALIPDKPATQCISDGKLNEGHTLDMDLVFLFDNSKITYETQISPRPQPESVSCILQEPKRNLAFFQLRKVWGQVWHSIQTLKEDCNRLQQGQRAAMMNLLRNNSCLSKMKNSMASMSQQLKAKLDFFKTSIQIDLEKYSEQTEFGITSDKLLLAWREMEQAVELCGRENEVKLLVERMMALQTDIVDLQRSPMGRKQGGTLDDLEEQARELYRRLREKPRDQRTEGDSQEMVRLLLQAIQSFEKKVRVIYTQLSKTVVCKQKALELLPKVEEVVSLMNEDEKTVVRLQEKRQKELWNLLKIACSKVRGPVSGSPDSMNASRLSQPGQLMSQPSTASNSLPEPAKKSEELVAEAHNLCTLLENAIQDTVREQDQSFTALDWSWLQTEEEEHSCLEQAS
High affinity nerve growth factor receptor (Homo sapiens), sequence (P04629 33-796 limits assumed): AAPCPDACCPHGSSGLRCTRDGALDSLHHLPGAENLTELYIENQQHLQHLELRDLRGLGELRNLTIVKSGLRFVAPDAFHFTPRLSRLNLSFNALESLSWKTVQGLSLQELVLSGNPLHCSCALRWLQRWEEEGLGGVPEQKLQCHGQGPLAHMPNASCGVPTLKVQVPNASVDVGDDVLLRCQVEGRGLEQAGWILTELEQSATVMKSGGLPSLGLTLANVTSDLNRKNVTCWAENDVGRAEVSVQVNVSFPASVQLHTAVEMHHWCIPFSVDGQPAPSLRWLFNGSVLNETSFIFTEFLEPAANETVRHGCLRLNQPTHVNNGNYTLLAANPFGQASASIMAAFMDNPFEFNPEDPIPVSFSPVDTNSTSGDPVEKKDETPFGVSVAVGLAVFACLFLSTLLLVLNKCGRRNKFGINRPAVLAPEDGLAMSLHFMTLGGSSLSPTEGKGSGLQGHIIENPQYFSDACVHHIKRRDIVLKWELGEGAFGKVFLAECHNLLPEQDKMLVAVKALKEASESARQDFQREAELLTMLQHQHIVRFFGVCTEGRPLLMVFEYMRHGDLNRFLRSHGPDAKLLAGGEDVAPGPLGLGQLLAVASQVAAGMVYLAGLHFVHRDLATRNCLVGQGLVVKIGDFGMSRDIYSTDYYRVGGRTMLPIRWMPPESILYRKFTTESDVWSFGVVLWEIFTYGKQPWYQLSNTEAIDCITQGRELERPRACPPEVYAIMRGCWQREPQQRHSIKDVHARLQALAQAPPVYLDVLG
Activin receptor type-1-like (Homo sapiens), sequence (P37023 whole entry, the tested form may be a part): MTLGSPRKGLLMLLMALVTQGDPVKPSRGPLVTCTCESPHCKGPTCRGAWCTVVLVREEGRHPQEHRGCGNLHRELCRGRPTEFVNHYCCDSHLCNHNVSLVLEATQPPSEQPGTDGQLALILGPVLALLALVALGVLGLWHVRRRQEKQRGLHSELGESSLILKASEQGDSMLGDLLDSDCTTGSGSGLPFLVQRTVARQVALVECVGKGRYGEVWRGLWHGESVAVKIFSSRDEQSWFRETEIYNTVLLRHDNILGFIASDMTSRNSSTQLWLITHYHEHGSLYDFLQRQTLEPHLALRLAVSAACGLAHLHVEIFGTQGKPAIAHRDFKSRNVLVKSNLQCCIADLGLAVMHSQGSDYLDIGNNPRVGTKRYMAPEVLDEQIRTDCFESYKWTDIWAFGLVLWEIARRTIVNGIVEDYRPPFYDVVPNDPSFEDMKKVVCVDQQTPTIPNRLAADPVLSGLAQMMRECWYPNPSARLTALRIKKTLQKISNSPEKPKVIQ
Membrane-associated tyrosine- and threonine-specific cdc2-inhibitory kinase (Homo sapiens), sequence (Q99640 whole entry, the tested form may be a part): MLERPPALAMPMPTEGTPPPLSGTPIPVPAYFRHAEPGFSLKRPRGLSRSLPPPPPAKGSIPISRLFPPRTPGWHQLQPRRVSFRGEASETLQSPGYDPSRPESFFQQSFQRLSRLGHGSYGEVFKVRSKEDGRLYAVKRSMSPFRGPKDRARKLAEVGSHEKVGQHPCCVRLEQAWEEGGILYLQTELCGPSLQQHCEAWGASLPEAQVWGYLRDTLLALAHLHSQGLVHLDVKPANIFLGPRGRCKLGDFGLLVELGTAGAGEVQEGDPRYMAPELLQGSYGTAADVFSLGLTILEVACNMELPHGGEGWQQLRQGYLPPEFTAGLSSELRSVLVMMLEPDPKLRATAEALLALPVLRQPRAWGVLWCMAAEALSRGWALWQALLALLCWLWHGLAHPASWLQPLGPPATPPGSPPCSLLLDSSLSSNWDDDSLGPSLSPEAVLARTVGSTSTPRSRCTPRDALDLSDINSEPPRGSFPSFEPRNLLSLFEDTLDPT

**Q.** What does the source list for C=CC(=O)Nc1cc(Nc2cc(-c3cccc(NC(=O)c4ccc(C(C)(C)C)cc4)c3C)cn(C)c2=O)ccc1C(=O)N1CCOCC1?
**A.** Activity [1]: 81%; Activity [2]: 100%; Activity [3]: 100%; Activity [4]: 100%; Activity [5]: 98%; Activity [6]: 95%; Activity [7]: 100%; Activity [8]: 100%; Activity [9]: 100%; Activity [10]: 93%; Activity [11]: 91%; Activity [12]: 100%; Activity [13]: 97%; Activity [14]: 98%; Activity [15]: 100%; Activity [16]: 94%; GI50 (U-937): 4.8 µM; Activity [17]: 100%; Activity [18]: 91%; Activity (Homo sapiens): 87%; Activity [19]: 100%; Activity [20]: 100%; Activity [21]: 98%; Activity [22]: 89%; Activity [23]: 84%; Activity [24]: 93%
